Laboratory results reported in patent publication US20240010981A1, “COMPOSITIONS AND METHODS FOR INCREASING STEM CELL FUNCTION” (SOCIETE DES PRODUITS NESTLE S.A., priority 2020, published 2024).
“Also recorded” adds a separate entry of the source.

What was measured:
[1] = test system: murine HSCs (LKS CD150+CD48−); experiment: Mitochondrial membrane potential (TMRM staining, flow cytometry) of cultured murine HSCs; type: cell-based, mouse; conditions: compared to the Basal condition; day 3 of culture; NR 500 uM, Vit B12 (MC) 100 uM
Protocol: Flow cytometry analysis was performed on freshly isolated bone marrow (BM) from C57BI6 mice. BM was extracted from crushed femora and tibia. Cell suspension was filtered through a 70 μm cell strainer and erythroid cells were eliminated by incubation with red blood cell lysis buffer (eBioscences). Isolation and stains were performed in ice-cold PBS 1 mM EDTA. Lineage positive cells were then removed with a magnetic lineage depletion kit (BD biosciences). Cell suspensions were then stained with specific antibodies for the stem cell compartment and sorted by FACS (BD FACS Aria III) into 1.5 ml Eppendorf tubes.
The following antibodies were used in this study: rat mAbs against cKit (2B8), Sca1 (D7), CD150 (TC-15-12F12.2), CD48 (HM48-1). The antibodies were purchased from Biolegend, eBiosciences and BD. A mixture of biotinylated mAbs against CD3, CD11b, CD45R/B220, Ly-6G, Ly-6C and TER-119 was used as lineage marker (“lineage cocktail”) and was purchased from BD. DAPI or propidium iodine (PI) staining was used for live/dead cell discrimination.
Murine HSCs were sorted into 1.5 ml Eppendorf tubes and were cultured in Stemline II (SIGMA) supplemented with 100 ng/ml SCF (R&D) and 2 ng/ml Flt3 (R&D). This was defined as the basal condition. Different concentrations as indicated of UroA, NR and Vit B12 (MC) were added in specific wells. NR was supplemented every 24 hours.
Mouse HSCs already in culture were incubated at 37° C. for 1 hour with 200 nM tetramethylrhodamine methyl ester (TMRM; Invitrogen) and 100 nM Mitotracker green. Cells were then washed with FACS buffer and analysed by flow cytometry on a BD LSR II.
Freshly FACS sorted mHSCs (LKS CD150+CD48−) were cultured in basal media (Stemline+SCF+FLT3L) supplemented with UroA, NR and MC in specific wells (as indicated). Cells were harvested at day 3 and stained with tetramethylrhodamine methyl ester (TMRM; to measure mitochondria membrane potential) and Mitotracker (to measure mitochondrial mass) and analysed by flow cytometry.

human HSCs = conditions: culture media supplemented with nicotinamide riboside, primary and secondary recipient humanised mice; cited from earlier work

For C/C1=C2/[N-][C@H]([C@H](CC(N)=O)[C@@]2(C)CCC(=O)NC[C@@H](C)OP(=O)([O-])O[C@H]2[C@@H](O)[C@@H](n3cnc4cc(C)c(C)cc43)O[C@@H]2CO)[C@]2(C)N=C(/C(C)=C3N=C(/C=C4N=C1[C@@H](CCC(N)=O)C\4(C)C)[C@@H](CCC(N)=O)[C@]\3(C)CC(N)=O)[C@@H](CCC(N)=O)[C@]2(C)CC(N)=O.[CH3-].[Co] [MC, methylcobalamine], the “MFI TMRM (Mean Fluorescence Intensity)” value [1] was “significantly decreased; also recorded: decreases” and the “proportion of cells in the TMRM low gate” value [1] was “significantly increased; also recorded: increases”.

For NC(=O)c1ccc[n+]([C@@H]2O[C@H](CO)[C@@H](O)[C@H]2O)c1 [NR, Nicotinamide riboside], the “MFI TMRM (Mean Fluorescence Intensity)” value [1] is given as “significantly decreased; also recorded: decreases”, the “proportion of cells in the TMRM low gate” value [1] is given as “significantly increased; also recorded: increases” and the levels of engraftment (human HSCs) is given as “significantly higher”.
